# In patent publication US20140296265A1, “Method of Treating Lymphoma Using Pyridopyrimidinone Inhibitors of PI3K/mTOR” (Sanofi, priority 2011, published 2014):
# Key:
# PI3K and MAPK pathways = test: Pharmacodynamic analyses in paired tumor tissue: phospho-markers; type: in vivo, human; settings: for % Decrease p4EBP1T70 / % Decrease pAKTS473 / % Decrease pAKTT308 / % Decrease pERKT202/Y204: Mantle Cell Lymphoma, 50 mg BID, PTEN-def
# Experimental: (§1) The secondary objectives were to determine (a) the plasma pharmacokinetics of Compound A continuous daily dosing; and (b) the pharmacodynamic effects of Compound A on tumor tissue. […] This finding is also reflected in FIG. 3, which depicts PTEN IHC and Ki67 IF staining of lymphoma tumor cells treated with Compound A. PTEN expression was evaluated by immunohistochemistry in formalin fixed, paraffin-embedded tissue sections FFPE (5 micron) with anti-PTEN antibody (NCL-PTEN, clone 28H6, diluted 1/300, Novocastra Laboratories Ltd) utilizing standardized procedures. Cryopreserved tumor biopsy samples were serially sectioned at 5 microns and converted in FFPE sections.
# [1] = system: mantle cell lymphoma tumor; test: Pharmacodynamic analyses in paired tumor tissue: Ki67 and TUNEL; type: in vivo, human
# Experimental: as §1
# [2] = Phase 1 dose-expansion lymphoma cohort: safety and tolerability; type: in vivo, human
# From the text: The following phase 1 study was designed to evaluate the safety and pharmacokinetics of Compound A administered as a continuous daily dosing regimen in an expansion cohort of subjects with relapsed or refractory lymphoma.
# (§2) This was a Phase 1, open-label, non-randomized trial of Compound A given orally as a single agent in subjects with lymphoma. The maximum tolerated dose expansion cohort planned enrollment was at least 15 subjects.
# The primary objective was to determine the safety and tolerability of Compound A administered orally, twice daily, as a continuous daily dosing regimen to subjects with relapsed or refractory lymphoma.
# (§3) The key eligibility include the following: • Histologically confirmed diagnosis of relapsed or refractory lymphoma • Measureable disease • Adequate bone marrow function defined as: • ANC≧1000/mm3 (chronic lymphocytic leukemia with ANC≧500/mm3) • Platelets≧30,000/mm3 • Hemoglobin≧8 g/dL • Availability of archival or fresh tumor tissue • No prior therapy with a selective PI3K inhibitor • Written informed consent.
# [3] = Phase 1 dose-escalation study: plasma pharmacokinetics; type: in vivo, human
# Experimental: (§4) A Phase I, non-randomized, open-label, dose-escalation study was conducted for Compound A using two dosing schedules to evaluate the safety, PK, and pharmacodynamics of Compound A in subjects with solid tumors or lymphoma.
# (§5) Patients received 5, 10 or 50 mg of Compound A either twice daily (bid) or daily (qd) for 28-day cycles. Pharmacokinetics and pharmacodynamic analyses were performed, and tumor response was assessed every 8 weeks.
# [4] = system: relapsed or refractory lymphoma; test: Phase 1 dose-expansion lymphoma cohort: best response; type: in vivo, human
# From the text: as §2
# The exploratory objectives were to determine (a) the pharmacodynamic effects of Compound A in subjects with lymphoma; (b) the preliminary efficacy data (response rate) for Compound A; and (c) the long-term safety and tolerability of Compound A after repeated twice daily administration.
# as §3
# [5] = system: PI3K and ERK pathway signaling; test: Phase 1 dose-escalation study: pharmacodynamics in paired tumor biopsies; type: in vivo, human
# Experimental: as §4, §5
# [6] = Phase 1 dose-escalation study: safety and tolerability (MTD, adverse events); type: in vivo
# Experimental: as §4
# Patients were treated with a conventional ‘3+3’ dose-escalation design with cohorts of three to six subjects for up to nine different dose levels on each dosing schedule.
# as §5
# [7] = human, in vivo, 50 mg, 27 day
# From the text: The secondary objectives were to determine (a) the plasma pharmacokinetics of Compound A continuous daily dosing; and (b) the pharmacodynamic effects of Compound A on tumor tissue.
# solid tumors or lymphoma = test: Phase 1 dose-escalation study: tumor response; type: in vivo, human
# Experimental: as §4, §5
# [8] = Mantle Cell Lymphoma, 50 mg BID, D 56 post dose, PTEN-def
# [9] = lymphoma cohort, sixteen subjects
# [10] = Diffuse Large B-cell Lymphoma, n 2, twice daily continuous dosing
# [11] = Follicular Lymphoma, n 4, twice daily continuous dosing
# [12] = Mantle Cell Lymphoma, n 5, twice daily continuous dosing
# [13] = paired biopsies of diverse solid tumors, five patients, 50 mg bid
compound,measurement,setting,value
"CCn1c(=O)c(-c2ccn[nH]2)cc2c(C)nc(N)nc21 [Compound A, 2-amino-8-ethyl-4-methyl-6-(1H-pyrazol-5-yl)pyrido[2,3-d]pyrimidin-7(8H)-one]",% Decrease p4EBP1T70,PI3K and MAPK pathways; D 27 post dose,60%
same,% Decrease pAKTS473,PI3K and MAPK pathways; D 27 post dose,70%
same,% Decrease pAKTT308,PI3K and MAPK pathways; D 27 post dose,65%
same,% Decrease pERKT202/Y204,PI3K and MAPK pathways; D 27 post dose,15%
same,% Decrease p4EBP1T70,PI3K and MAPK pathways; D 56 post dose,60%
same,% Decrease pAKTS473,PI3K and MAPK pathways; D 56 post dose,73%
same,% Decrease pAKTT308,PI3K and MAPK pathways; D 56 post dose,88%
same,% Decrease pERKT202/Y204,PI3K and MAPK pathways; D 56 post dose,74%
same,inhibition of the PI3K and MAPK pathways,PI3K and MAPK pathways; mantle cell lymphoma tumor,robust inhibition of the PI3K and MAPK pathways
same,% Decrease Ki67,"[1]; Mantle Cell Lymphoma, 50 mg BID, D 27 post dose, PTEN-def",98%
same,% Decrease Ki67,[1]; [8],99%
same,TUNEL (fold increase),[1]; [8],1.5 fold
same,inhibition of Ki67 proliferation,[1]; mantle cell lymphoma tumor,near complete inhibition of Ki67 proliferation
same,"ALT increased, All Adverse Events, All Grades","[2]; human, in vivo",3 (19) n (%)
same,"ALT increased, All Adverse Events, Grade ≧ 3","[2]; human, in vivo",2 (13) n (%)
same,"ALT increased, Related Adverse Events, All Grades","[2]; human, in vivo",3 (19) n (%)
same,"ALT increased, Related Adverse Events, Grade ≧ 3","[2]; human, in vivo",2 (13) n (%)
same,"AST increased, All Adverse Events, All Grades","[2]; human, in vivo",4 (25) n (%)
same,"AST increased, All Adverse Events, Grade ≧ 3","[2]; human, in vivo",0 n (%)
same,"AST increased, Related Adverse Events, All Grades","[2]; human, in vivo",3 (19) n (%)
same,"AST increased, Related Adverse Events, Grade ≧ 3","[2]; human, in vivo",0 n (%)
same,"Anemia, All Adverse Events, All Grades","[2]; human, in vivo",3 (19) n (%)
same,"Anemia, All Adverse Events, Grade ≧ 3","[2]; human, in vivo",2 (13) n (%)
same,"Anemia, Related Adverse Events, All Grades","[2]; human, in vivo",1 (6) n (%)
same,"Anemia, Related Adverse Events, Grade ≧ 3","[2]; human, in vivo",0 n (%)
same,"Asthenia, All Adverse Events, All Grades","[2]; human, in vivo",3 (19) n (%)
same,"Asthenia, All Adverse Events, Grade ≧ 3","[2]; human, in vivo",2 (13) n (%)
same,"Asthenia, Related Adverse Events, All Grades","[2]; human, in vivo",0 n (%)
same,"Asthenia, Related Adverse Events, Grade ≧ 3","[2]; human, in vivo",0 n (%)
same,"Creatinine increased, All Adverse Events, All Grades","[2]; human, in vivo",3 (19) n (%)
same,"Creatinine increased, All Adverse Events, Grade ≧ 3","[2]; human, in vivo",0 n (%)
same,"Creatinine increased, Related Adverse Events, All Grades","[2]; human, in vivo",0 n (%)
same,"Creatinine increased, Related Adverse Events, Grade ≧ 3","[2]; human, in vivo",0 n (%)
same,"Diarrhea, All Adverse Events, All Grades","[2]; human, in vivo",6 (38) n (%)
same,"Diarrhea, All Adverse Events, Grade ≧ 3","[2]; human, in vivo",0 n (%)
same,"Diarrhea, Related Adverse Events, All Grades","[2]; human, in vivo",3 (19) n (%)
same,"Diarrhea, Related Adverse Events, Grade ≧ 3","[2]; human, in vivo",0 n (%)
same,Discontinuations of treatment: Adverse event,"[2]; human, in vivo",2 (13) n (%)
same,Dose modification due to treatment-related toxicities: AST/ALT increase,"[2]; human, in vivo",2 (40) n (%)
same,Dose modification due to treatment-related toxicities: Amylase increase,"[2]; human, in vivo",1 (20) n (%)
same,Dose modification due to treatment-related toxicities: Nausea,"[2]; human, in vivo",2 (40) n (%)
same,"Fatigue, All Adverse Events, All Grades","[2]; human, in vivo",3 (19) n (%)
same,"Fatigue, All Adverse Events, Grade ≧ 3","[2]; human, in vivo",1 (6) n (%)
same,"Fatigue, Related Adverse Events, All Grades","[2]; human, in vivo",1 (6) n (%)
same,"Fatigue, Related Adverse Events, Grade ≧ 3","[2]; human, in vivo",0 n (%)
same,"Hyperglycemia, All Adverse Events, All Grades","[2]; human, in vivo",3 (19) n (%)
same,"Hyperglycemia, All Adverse Events, Grade ≧ 3","[2]; human, in vivo",0 n (%)
same,"Hyperglycemia, Related Adverse Events, All Grades","[2]; human, in vivo",1 (6) n (%)
same,"Hyperglycemia, Related Adverse Events, Grade ≧ 3","[2]; human, in vivo",0 n (%)
same,"Nausea, All Adverse Events, All Grades","[2]; human, in vivo",5 (31) n (%)
same,"Nausea, All Adverse Events, Grade ≧ 3","[2]; human, in vivo",0 n (%)
same,"Nausea, Related Adverse Events, All Grades","[2]; human, in vivo",5 (31) n (%)
same,"Nausea, Related Adverse Events, Grade ≧ 3","[2]; human, in vivo",0 n (%)
same,Patients requiring dose modification due to toxicity,"[2]; human, in vivo",12 (75) n (%)
same,Patients requiring dose modification due to treatment-related toxicities,"[2]; human, in vivo",5 (31) n (%)
same,"Pyrexia, All Adverse Events, All Grades","[2]; human, in vivo",4 (25) n (%)
same,"Pyrexia, All Adverse Events, Grade ≧ 3","[2]; human, in vivo",0 n (%)
same,"Pyrexia, Related Adverse Events, All Grades","[2]; human, in vivo",0 n (%)
same,"Pyrexia, Related Adverse Events, Grade ≧ 3","[2]; human, in vivo",0 n (%)
same,Discontinuations of treatment,[2]; in vivo,14 (88) n (%)
same,tolerability,[2]; in vivo,well tolerated
same,Discontinuations of treatment: Death (unrelated to study drug),[2]; [9],1 (6) n (%)
same,Discontinuations of treatment: Progressive disease,[2]; [9],8 (50) n (%)
same,exposure versus dose,[3]; bid and qd schedules,increase with increasing dose
same,half-life,"[3]; human, plasma, oral, at steady-state, read-out: Mean t1/2,z",180 to 540 min
same,Tmax,"[3]; human, plasma, oral, post-dose, read-out: Median tmax",1 to 3 h
same,Best Response: subjects with Partial Response,[4]; [10],1
same,Best Response: subjects with Progressive Disease,[4]; [10],1
same,Best Response: subjects with Progressive Disease,[4]; [11],1
same,Best Response: subjects with Stable Disease,[4]; [11],3
same,Best Response: subjects with Stable Disease,"[4]; Hodgkin's Lymphoma, n 1, twice daily continuous dosing",1
same,Best Response: subjects with Partial Response,[4]; [12],1^b
same,Best Response: subjects with Progressive Disease,[4]; [12],1
same,Best Response: subjects with Stable Disease,[4]; [12],3 c
same,Best Response: subjects with Partial Response,"[4]; Transformed Lymphoma, n 1, twice daily continuous dosing",1 days
same,post-dose reduction in p4EBP1,[5]; [13],62-80%
same,post-dose reduction in pAKT-T308,[5]; [13],57-71%
same,post-dose reduction in pERK,[5]; [13],53-80%
same,pharmacodynamic modulation of PI3K and ERK pathway signaling,"[5]; tumors and surrogate tissues, repeat-dose administration",Robust pharmacodynamic modulation
same,maximum tolerated dose (MTD),[6]; bid schedule,50 mg
same,most common related adverse events,[6]; in vivo,"nausea, diarrhea, anorexia, elevated liver enzymes, skin and subcutaneous disorders, and vomiting"
same,tolerability,[6]; in vivo,generally well-tolerated
same,maximum tolerated dose (MTD),[6]; qd schedule,90 mg
same,accumulation (AUCtau) on day 27,[7],approximately 3 fold
same,patients on study for ≧16 weeks,solid tumors or lymphoma; in vivo,Eleven
same,patients on treatment for ≧24 weeks,solid tumors or lymphoma; in vivo,seven
same,tumor response,"solid tumors or lymphoma; one patient with mantle cell lymphoma, treated for 12 cycles",one partial response in MCL
same,activity in solid tumor patients,solid tumors or lymphoma; solid tumor patients,prolonged disease stabilization
